Drawing on ChEMBL document CHEMBL1255183, “Role of the phenolic hydroxyl group in the biological activities of simplified analogue of aplysiatoxin with antiproliferative activity” (Bioorg Med Chem Lett, 2010), this text covers Ki, Activity and viability for three compounds.

Series [1] concerns the target T1, Protein kinase C epsilon type (Homo sapiens, UniProt Q02156).
T1 sequence (Q02156 whole entry): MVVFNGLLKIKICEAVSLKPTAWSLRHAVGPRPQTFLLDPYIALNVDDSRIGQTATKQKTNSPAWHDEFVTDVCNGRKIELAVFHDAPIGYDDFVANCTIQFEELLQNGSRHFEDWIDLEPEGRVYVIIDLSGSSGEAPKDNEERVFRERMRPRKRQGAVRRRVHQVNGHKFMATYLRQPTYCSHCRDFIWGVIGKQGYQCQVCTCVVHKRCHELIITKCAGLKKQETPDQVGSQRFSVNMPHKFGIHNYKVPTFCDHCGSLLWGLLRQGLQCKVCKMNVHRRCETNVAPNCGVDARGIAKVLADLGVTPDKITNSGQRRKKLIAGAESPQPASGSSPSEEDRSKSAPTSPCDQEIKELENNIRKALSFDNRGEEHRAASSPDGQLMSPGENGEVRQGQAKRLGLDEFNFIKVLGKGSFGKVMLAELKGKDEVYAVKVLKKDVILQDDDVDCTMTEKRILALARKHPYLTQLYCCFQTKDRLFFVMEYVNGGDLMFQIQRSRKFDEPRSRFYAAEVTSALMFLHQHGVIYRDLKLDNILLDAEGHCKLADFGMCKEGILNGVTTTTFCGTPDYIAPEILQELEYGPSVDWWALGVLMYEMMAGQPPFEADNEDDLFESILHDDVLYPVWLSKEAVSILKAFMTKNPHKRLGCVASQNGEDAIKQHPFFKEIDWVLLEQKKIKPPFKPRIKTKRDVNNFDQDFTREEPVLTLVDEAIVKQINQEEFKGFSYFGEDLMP
The series is described as follows: Inhibition of [3H]PDBu binding to PKCepsilon C1B peptide.

Series [2] concerns the target Protein kinase C alpha type (Homo sapiens, UniProt P17252). In words: Inhibition of [3H]PDBu binding to PKC alpha C1A peptide.
Series [3] deals with T2, Protein kinase C delta type (Homo sapiens, UniProt Q05655). In words: Inhibition of [3H]PDBu binding to PKC delta C1A peptide.
T2 sequence (Q05655 whole entry): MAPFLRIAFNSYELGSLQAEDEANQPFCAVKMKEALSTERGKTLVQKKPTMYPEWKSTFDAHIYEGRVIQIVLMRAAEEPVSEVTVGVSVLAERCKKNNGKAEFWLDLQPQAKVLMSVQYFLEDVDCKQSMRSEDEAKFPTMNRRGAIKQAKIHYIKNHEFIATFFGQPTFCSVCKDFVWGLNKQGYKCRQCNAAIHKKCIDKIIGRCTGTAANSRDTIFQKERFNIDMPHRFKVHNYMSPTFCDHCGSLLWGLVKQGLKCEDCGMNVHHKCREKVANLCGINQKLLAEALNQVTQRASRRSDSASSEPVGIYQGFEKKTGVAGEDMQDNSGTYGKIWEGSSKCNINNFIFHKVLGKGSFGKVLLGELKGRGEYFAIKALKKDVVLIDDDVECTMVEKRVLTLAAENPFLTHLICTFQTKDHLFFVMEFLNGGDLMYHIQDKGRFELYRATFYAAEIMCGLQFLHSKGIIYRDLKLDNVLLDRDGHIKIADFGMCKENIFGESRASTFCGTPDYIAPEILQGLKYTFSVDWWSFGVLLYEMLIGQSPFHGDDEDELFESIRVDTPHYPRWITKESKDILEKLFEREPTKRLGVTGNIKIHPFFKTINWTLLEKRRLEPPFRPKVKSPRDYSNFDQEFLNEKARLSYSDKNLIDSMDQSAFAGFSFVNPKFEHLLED
Series [4] deals with T2, Protein kinase C delta type. The series is described as follows: Inhibition of [3H]PDBu binding to PKC delta C1B peptide.
Series [5] deals with Protein kinase C gamma type (Homo sapiens, UniProt P05129). In words: Inhibition of [3H]PDBu binding to PKC gamma C1A peptide.
The target in series [6] is Protein kinase C beta type (Homo sapiens, UniProt P05771). In words: Inhibition of [3H]PDBu binding to PKC beta C1A peptide.
Sequence of Protein kinase C beta type (P05771 whole entry): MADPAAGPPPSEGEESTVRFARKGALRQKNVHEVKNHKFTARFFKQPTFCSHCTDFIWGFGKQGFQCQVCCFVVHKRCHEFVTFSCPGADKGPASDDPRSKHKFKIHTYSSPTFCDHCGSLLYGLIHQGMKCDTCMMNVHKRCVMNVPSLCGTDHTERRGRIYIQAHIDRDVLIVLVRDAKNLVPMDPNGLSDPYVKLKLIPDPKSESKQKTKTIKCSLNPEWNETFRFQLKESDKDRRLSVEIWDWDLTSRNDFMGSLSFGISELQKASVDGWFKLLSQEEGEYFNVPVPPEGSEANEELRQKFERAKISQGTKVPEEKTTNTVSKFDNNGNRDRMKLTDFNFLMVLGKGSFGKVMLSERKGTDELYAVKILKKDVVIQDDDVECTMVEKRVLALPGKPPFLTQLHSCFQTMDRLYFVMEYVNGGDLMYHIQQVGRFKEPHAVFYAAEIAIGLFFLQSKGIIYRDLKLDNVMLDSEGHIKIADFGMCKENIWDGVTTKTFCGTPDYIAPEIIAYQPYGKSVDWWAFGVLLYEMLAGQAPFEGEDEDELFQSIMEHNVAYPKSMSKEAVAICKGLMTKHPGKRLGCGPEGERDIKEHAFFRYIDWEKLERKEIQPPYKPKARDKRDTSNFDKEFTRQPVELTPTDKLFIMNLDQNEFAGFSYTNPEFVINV
For series [7], the target named is Protein kinase C theta type (Homo sapiens, UniProt Q04759). The series is described as follows: Inhibition of [3H]PDBu binding to PKCtheta C1B peptide.
Sequence of Protein kinase C theta type (Q04759 whole entry): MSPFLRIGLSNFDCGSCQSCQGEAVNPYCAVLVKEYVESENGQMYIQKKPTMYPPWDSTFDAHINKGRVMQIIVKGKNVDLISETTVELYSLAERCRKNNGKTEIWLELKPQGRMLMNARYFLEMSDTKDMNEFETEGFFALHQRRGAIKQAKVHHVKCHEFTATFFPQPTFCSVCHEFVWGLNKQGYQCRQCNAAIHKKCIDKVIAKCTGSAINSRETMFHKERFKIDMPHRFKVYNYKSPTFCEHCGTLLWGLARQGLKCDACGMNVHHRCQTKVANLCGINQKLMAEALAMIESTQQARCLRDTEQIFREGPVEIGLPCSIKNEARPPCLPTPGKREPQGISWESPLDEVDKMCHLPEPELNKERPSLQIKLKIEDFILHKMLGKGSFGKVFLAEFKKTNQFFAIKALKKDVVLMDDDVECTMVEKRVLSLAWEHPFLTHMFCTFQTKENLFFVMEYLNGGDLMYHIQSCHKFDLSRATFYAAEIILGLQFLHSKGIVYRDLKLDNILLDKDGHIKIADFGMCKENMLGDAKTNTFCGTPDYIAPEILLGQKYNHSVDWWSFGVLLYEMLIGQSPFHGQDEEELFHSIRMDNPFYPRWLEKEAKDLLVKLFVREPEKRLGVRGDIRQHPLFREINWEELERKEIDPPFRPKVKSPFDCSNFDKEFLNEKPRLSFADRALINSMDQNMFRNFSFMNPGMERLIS
In series [8] the target is Protein kinase C eta type (Homo sapiens, UniProt P24723). In words: Inhibition of [3H]PDBu binding to PKCeta C1B peptide.
Sequence of Protein kinase C eta type (P24723 whole entry): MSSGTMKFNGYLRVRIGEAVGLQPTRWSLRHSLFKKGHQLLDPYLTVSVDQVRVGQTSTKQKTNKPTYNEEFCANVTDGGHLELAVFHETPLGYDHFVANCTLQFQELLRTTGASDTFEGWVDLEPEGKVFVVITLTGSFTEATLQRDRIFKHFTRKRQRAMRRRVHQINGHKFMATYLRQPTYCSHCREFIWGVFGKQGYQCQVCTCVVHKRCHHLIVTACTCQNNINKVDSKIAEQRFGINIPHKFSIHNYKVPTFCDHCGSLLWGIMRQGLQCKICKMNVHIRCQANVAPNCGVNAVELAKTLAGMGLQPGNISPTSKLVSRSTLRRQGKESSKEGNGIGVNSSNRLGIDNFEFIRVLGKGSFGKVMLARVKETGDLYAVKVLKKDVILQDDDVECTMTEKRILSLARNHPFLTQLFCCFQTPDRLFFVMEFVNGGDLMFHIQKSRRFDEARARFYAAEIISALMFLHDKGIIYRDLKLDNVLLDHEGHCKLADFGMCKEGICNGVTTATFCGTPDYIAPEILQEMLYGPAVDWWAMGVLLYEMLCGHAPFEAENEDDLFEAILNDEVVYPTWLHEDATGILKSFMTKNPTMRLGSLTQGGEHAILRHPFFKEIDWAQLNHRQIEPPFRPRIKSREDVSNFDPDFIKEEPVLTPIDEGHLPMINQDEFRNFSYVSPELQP
The test system of series [9] is Raji. The series is described as follows: Induction of EBA-early antigen production in human Raji cells at 10^-7 M. Format: cell-based. As to conditions: human gammaherpesvirus 4.
Series [10] relates to Raji. In words: Inhibition of TPA-induced EBA-early antigen production in human Raji cells at 10^-7 M. Format: cell-based. The arrangement: scale not given: the % may be the effect or the level left. As to conditions: human gammaherpesvirus 4.
The nature of series [11]: Cytotoxicity against human Raji cells assessed as viability at 10^-7 M. As to conditions: read-out: Activity. Format: cell-based.
Series [12] has as its system Raji. In words: Induction of EBA-early antigen production in human Raji cells at 1 uM. Format: cell-based. As to conditions: human gammaherpesvirus 4.
A short description of series [13]: Cytotoxicity against human Raji cells assessed as viability at 1 uM. Format: cell-based. As to conditions: read-out: Activity.
Series [14] is described as follows: Cytotoxicity against human Raji cells assessed as viability at 10^-7 M in presence of TPA. Format: cell-based. As to conditions: read-out: Activity.
For series [15], the system named is Raji. In words: Inhibition of TPA-induced EBA-early antigen production in human Raji cells at 1 uM. Format: cell-based. Further details: scale not given: the % may be the effect or the level left. As to conditions: human gammaherpesvirus 4.
A short description of series [16]: Cytotoxicity against human Raji cells assessed as viability at 1 uM in presence of TPA. Format: cell-based. As to conditions: read-out: Activity.

By Ki is commonly meant a measure of affinity in units of concentration, obtained from inhibition or displacement. Turning to `O=C1C[C@H](CO)OC(=O)C[C@H]2CCC[C@]3(C[C@@H](C[C@@H](CCCCc4ccccc4)O3)O1)O2`, the Ki in series [1] is 820 nM; in series [2], 2400 nM; in series [3], 6800 nM; in [4] it was 170 nM; in series [5], 1600 nM; in [6], 3500 nM. In addition, the values for the Ki in series [7] and in series [8] were 170 nM and 180 nM, respectively.
Take `CO[C@@H](CC[C@H](C)[C@H]1O[C@@]23C[C@H](OC(=O)C[C@H]([C@@H](C)O)OC(=O)C[C@](O)(O2)[C@H](C)CC3(C)C)[C@@H]1C)c1cc(O)ccc1Br` [APLYSIATOXIN]: the Activity with Raji [9] was determined as 18.4%; in the series with Raji [10] it was 17.8%; in the series on Raji [12], 20.1%; in the series with Raji [15] it was 19.4%. The inhibition constant Ki in series [1] is 1.3 nM; in [2], 0.4 nM; in series [3], 12 nM; in [4], 0.41 nM; in [5] it was 0.63 nM; in series [6], 0.45 nM. The Ki in series [7] was 0.16 nM; in [8] it was 0.36 nM. Besides, the viability at 0.1 µM in [11] and in [14] was 50% each time. Further, the viability at 1 µM in [13] and in series [16] was 40% each time.
For `CCCCCCCCCCCCCC(=O)O[C@@H]1[C@@H](C)[C@@]2(O)[C@@H](C=C(CO)C[C@]3(O)C(=O)C(C)=C[C@@H]23)[C@@H]2C(C)(C)[C@]12OC(C)=O` [PHORBOL MYRISTATE ACETATE], the Activity in the series on Raji [9] came to 28.8%; with Raji [12] it was 30.2%. In series [11], the viability at 0.1 µM amounted to 60%. The viability at 1 µM in series [13] turned out to be 50%.
